# Laboratory results reported in patent US11358939B2, “1,4-benzodiazepin-2-one derivatives and use thereof” (priority 2017, dated 2022).
# Tests used:
# [1] = system: central benzodiazepine receptors (CBR); assay: Affinity to central benzodiazepine receptors, competitive displacement of [3H]-flumazenil (radioreceptor method); type: binding; settings: 1×10^−6 mol/L
# Protocol: Affinity of the compounds to central benzodiazepine receptors (CBR) was studied using radioreceptor method of competitive displacement of radioligant [^3H]-flumazenil (Ro 15-1788) from its specific binding sites at the receptor. Ligand displacement were performed in 1×10^−6 mol/L concentration.
# (§1) Data on the affinity of 3-alcoxy-1,3-dihydro-2H-benzo[e][1,4]diazepin-2-ones (Ia) to central and peripheral benzodiazepine receptors is presented in Table 3.
# [2] = molecular target: peripheral benzodiazepine receptors (PBR) (Homo sapiens, UniProt P30536); assay: Affinity to peripheral benzodiazepine receptors; type: binding; settings: 1×10^−6 mol/L
# Excerpt: as §1
# [3] = system: writhes induced by intraperitoneal acetic acid; assay: Analgesic activity, acetic acid-induced writhing test (peripheral pain model); type: in vivo; settings: 1 mg/kg intraperitoneally, 40 min before 0.75% acetic acid
# Protocol: Assessment of analgesic activity was performed in a model of peripheral pain based on chemical pain induced by intraperitoneal administration of acetic acid, leading to involuntary contractions of abdominal muscles, termed “writhes”, accompanied by hind leg extension and spine arching. The writhes were induced by 0.75% solution of acetic acid, which was administered intraperitoneally 40 min after intraperitoneal administration of test compounds in 0.001-5 mg/kg dose range. […] Analgesic activity was assessed by the ability of the compounds to reduce the number of writhes in test group compared to control group, and indicated as percentage using the following formula: AA=(Wc−Wt/Wc)×100%,
# where AA—analgesic activity in %;
# Wc—average number of writhes in control group;
# Wt—average number of writhes in test group
# Test compounds were studied in comparison with the reference drug sodium diclofenac in 10 mg/kg dose. ED50 was calculated using Prozorovsky method.
# [4] = system: immobility time of mice; assay: Antidepressant activity, Porsolt forced swimming test; type: in vivo; settings: 1 mg/kg
# Protocol: (§2) Studies of pharmacological activity of 3-arylamino-1,3-dihydro-2H-benzo[e][1,4]diazepin-2-ones, namely, their action of appetite, assessment of antihypoxic and antidepressant activity was performed in white male rats with body mass 150-180 g and male mice with body mass 18-22 g. The animals were kept on a standard laboratory diet and natural lighting. Animals of control group were given a water-Tween suspension. Test compounds were administered in a suspension with Tween-80 Reference drugs were the hormone leptin, in 0.0002 mg/kg dose, and a well-known antidepressant amitriptyline (solution for injections in 1 ml vials. Test compounds and the water-Tween suspension were administered in a dose of 0.2 ml/100 g of rat body mass.
# Antidepressant activity was studied using «Porsolt forced swimming test» [15], which models stress in mice by forcing them to swim in a narrow translucent cylinder, filled by ⅓ volume with water at 23-25° C. temperature. Antidepressant action is assessed by the reduction in immobility time, when the animals have minimal amount of paddling, in seconds or percentage compared to control. The animal behavior was registered for 4 minutes after acclimatization for 2 minutes.
# [5] = system: food consumption by rats; assay: Action on appetite, Anorexia method (liquid food consumption); type: in vivo
# Protocol: as §2
# The action of the compounds on rat appetite was studied using «norexia» method. For 2 weeks in an experimental equipment the rats were conditioned to consume liquid food. Then a water-Tween suspension of test articles was administered intraperitoneally to conditioned animals one day before the experiment. After 40 minutes the animals were allowed access to liquid food and the amount of consumed food (in ml) of every rat was registered every 30 minutes for 3 hours. The next day after 2 hours of deprivation the rats in control group were administered a water-Tween suspension intraperitoneally, while the test group was administered the test articles. After 40 minutes the animals were allowed access to liquid food and the amount of consumed food (in ml) of every rat was registered every 30 minutes for 3 hours. Then all food consumption values for each rat were summed and compared to control values. The control group has consumed on average 7 ml of liquid food per 30 minutes. The effect was calculated in percentage compared to control.
# [6] = system: general movement activity of animals; assay: General movement activity, open field test; type: in vivo; settings: for Sedative properties (words, from general movement activity versus control): 5 mg/kg; for General movement activity (5 mg/kg): open field 3 min, sum of rearings, transitions, explored holes, 30 min before test
# Protocol: General movement activity was assessed in an open field test. While the animals were in the open field (3 min), the number of rearings (vertical movement activity), transitions between squares (horizontal movement activity) and the number of explored holes (exploratory activity) were registered. The sum of these values is general movement activity.
# (§3) Diazepam drug was used as the reference drug. All test compounds and the reference drug diazepam were administered in a suspension with Tween-80 in 5 mg/kg dose 30 min before the start of experiments.
# [7] = system: number of drinking actions despite electric shock; assay: Anxiolytic activity, conflict situation model (drinking versus electric shock); type: in vivo; settings: number of drinking actions despite electric shock, 30 min before test
# Protocol: Anxiolytic activity was assessed in a model of conflict situation based on the conflict of two reflexes (drinking and defensive) when drinking water from a water fountain. Anxiolytic activity was assessed by the number of drinking actions despite electric shock.
# as §3
# [8] = dose 0,1 mg/kg intraperitoneally
# Chain of peripheral benzodiazepine receptors (PBR) (P30536 whole entry, species assumed): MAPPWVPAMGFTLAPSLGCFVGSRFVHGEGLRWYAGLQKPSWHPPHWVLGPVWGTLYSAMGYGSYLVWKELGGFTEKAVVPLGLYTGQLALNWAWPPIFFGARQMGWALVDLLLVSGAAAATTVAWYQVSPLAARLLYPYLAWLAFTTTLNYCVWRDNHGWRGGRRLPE
SMILES,"Affinity CBR, % [1] [%]","Affinity PBR, % [2] [%]","Writhing inhibition, % of control in 1 mg/kg dose ([3]; compounds Ia) [%]",General movement activity (5 mg/kg) [6],Anxiolytic activity assessed using conflict situation method (5 mg/kg) [7],"Writhing inhibition, % of control in 1 mg/kg dose ([3]; compounds Ib) [%]",further results
O=C1Nc2ccc([N+](=O)[O-])cc2C(c2ccccc2)=NC1Nc1ccccc1[N+](=O)[O-] (centres unmarked),–,–,–,–,–,–,melting point: 225 to 227 °C
CCCOC1N=C(c2ccccc2F)c2cc(Br)ccc2NC1=O (centres unmarked) [Compound 2],85,5,55,–,–,–,–
CCCCOC1N=C(c2ccccc2F)c2cc(Br)ccc2NC1=O (centres unmarked) [Compound 3],88,8,45,–,–,–,–
O=C1Nc2ccc(Br)cc2C(c2ccccc2F)=NC1OCCO (centres unmarked) [Compound 4],91,8,56,–,–,–,–
COCCOC1N=C(c2ccccc2F)c2cc(Br)ccc2NC1=O (centres unmarked) [Compound 5],90,10,52,–,–,–,–
O=C1Nc2ccc(Br)cc2C(c2ccccc2F)=NC1OCC1CC1 (centres unmarked) [Compound 6],89,15,55,–,–,–,–
COCCOC1N=C(c2ccccc2)c2cc(Cl)ccc2NC1=O (centres unmarked) [Compound 16],88,15,55,–,–,–,–
O=C1Nc2ccc(Cl)cc2C(c2ccccc2)=NC1OCC1CC1 (centres unmarked) [Compound 17],79,14,54,–,–,–,–
CCOC1N=C(c2ccccc2)c2cc(OC(F)(F)F)ccc2NC1=O (centres unmarked) [Compound 27],56,16,55,–,–,–,–
CCCOC1N=C(c2ccccc2)c2cc(OC(F)(F)F)ccc2NC1=O (centres unmarked) [Compound 28],60,18,60,–,–,–,–
CCCCOC1N=C(c2ccccc2)c2cc(OC(F)(F)F)ccc2NC1=O (centres unmarked) [Compound 29],61,15,56,–,–,–,–
O=C1Nc2ccc(OC(F)(F)F)cc2C(c2ccccc2)=NC1OCCO (centres unmarked) [Compound 30],65,16,50,–,–,–,–
CCOC1N=C(c2ccccc2Cl)c2cc([N+](=O)[O-])ccc2NC1=O (centres unmarked) [Compound 53],85,15,–,–,–,–,–
CCCOC1N=C(c2ccccc2Cl)c2cc([N+](=O)[O-])ccc2NC1=O (centres unmarked) [Compound 54],88,16,–,–,–,–,–
CCCCOC1N=C(c2ccccc2Cl)c2cc([N+](=O)[O-])ccc2NC1=O (centres unmarked) [Compound 55],87,19,–,–,–,–,–
COC(=O)CN1C(=O)C(Nc2cccc(F)c2)N=C(c2ccccc2)c2cc(Cl)ccc21 (centres unmarked) [Compound 159],–,–,–,–,–,–,Reduction of immobility time compared to control [4]: 32%
O=C1Nc2ccc(OC(F)(F)F)cc2C(c2ccccc2)=NC1Nc1ccccc1Cl (centres unmarked) [Compound 194],–,–,–,–,–,–,"Reduction of immobility time compared to control [4]: 40%; Reduction in appetite and food consumption compared to control ([5]; Table 6 dose 0,1 mg/kg): 47%; Amount of consumed liquid food during 30 min in ml [5, 8]: 3,5 ± 2,3 ml; Food consumption, % of control [5, 8]: 47%"
COC(=O)CN1C(=O)C(Nc2ccccc2F)N=C(c2ccccc2Cl)c2cc([N+](=O)[O-])ccc21 (centres unmarked) [Compound 317],–,–,–,47.0 ± 3.7,33.4 ± 3.2,63,"Sedative properties (words, from general movement activity versus control) [6]: don't have sedative properties"
COC(=O)CN1C(=O)C(Nc2cccc(F)c2)N=C(c2ccccc2Cl)c2cc([N+](=O)[O-])ccc21 (centres unmarked) [Compound 318],–,–,–,28.5 ± 2.3,19.2 ± 3.4,65,–
COC(=O)CN1C(=O)C(Nc2ccc(F)cc2)N=C(c2ccccc2Cl)c2cc([N+](=O)[O-])ccc21 (centres unmarked) [Compound 319],–,–,–,27.2 ± 2.1,18.1 ± 2.2,61,–
COC(=O)CN1C(=O)C(Nc2ccccc2Br)N=C(c2ccccc2Cl)c2cc([N+](=O)[O-])ccc21 (centres unmarked) [Compound 326],–,–,–,22.0 ± 2.0,45.1 ± 2.6,62,–
COC(=O)CN1C(=O)C(Nc2cccc(Br)c2)N=C(c2ccccc2Cl)c2cc([N+](=O)[O-])ccc21 (centres unmarked) [Compound 327],–,–,–,45.0 ± 3.7,43.4 ± 3.2,70,"Sedative properties (words, from general movement activity versus control) [6]: don't have sedative properties"
COC(=O)CN1C(=O)C(Nc2ccc(Br)cc2)N=C(c2ccccc2Cl)c2cc([N+](=O)[O-])ccc21 (centres unmarked) [Compound 328],–,–,–,24.5 ± 2.3,23.2 ± 3.4,69,–
COC(=O)CN1C(=O)C(Nc2ccccc2Cl)N=C(c2ccccc2F)c2cc([N+](=O)[O-])ccc21 (centres unmarked) [Compound 362],–,–,–,29.2 ± 2.3,35.1 ± 3.5,65,–
COC(=O)CN1C(=O)C(Nc2cccc(Cl)c2)N=C(c2ccccc2F)c2cc([N+](=O)[O-])ccc21 (centres unmarked) [Compound 363],–,–,–,41.0 ± 3.9,46.4 ± 4.2,70,"Sedative properties (words, from general movement activity versus control) [6]: don't have sedative properties"
COC(=O)CN1C(=O)C(Nc2ccc(Cl)cc2)N=C(c2ccccc2F)c2cc([N+](=O)[O-])ccc21 (centres unmarked) [Compound 364],–,–,–,34.5 ± 3.3,26.2 ± 3.4,64,–
COC(=O)CN1C(=O)C(Nc2ccccc2C(F)(F)F)N=C(c2ccccc2F)c2cc([N+](=O)[O-])ccc21 (centres unmarked) [Compound 398],–,–,–,28.2 ± 3.3,33.1 ± 3.2,68,–
COC(=O)CN1C(=O)C(Nc2cccc(C(F)(F)F)c2)N=C(c2ccccc2F)c2cc([N+](=O)[O-])ccc21 (centres unmarked) [Compound 399],–,–,–,41.8 ± 4.3,44.4 ± 4.3,70,"Sedative properties (words, from general movement activity versus control) [6]: don't have sedative properties"
COC(=O)CN1C(=O)C(Nc2ccc(C(F)(F)F)cc2)N=C(c2ccccc2F)c2cc([N+](=O)[O-])ccc21 (centres unmarked) [Compound 400],–,–,–,36.5 ± 3.3,32.2 ± 3.3,60,–
"CN(C)CCC=C1c2ccccc2CCc2ccccc21 [amitriptyline, reference compound]",–,–,–,–,–,–,Reduction of immobility time compared to control [4]: 40%
